Measured values as given in patent US12600926B2, “Treatment compositions with modified amino acid dimers for delivering a benefit agent” (The Procter & Gamble Company, priority 2022, dated 2026).

Assay: Stability of the independent neat fluid by 1H NMR
Assay type: physicochemical
Settings: neat premix fluid, storage
Method: (§1) Synthetic Example 1′ was prepared as described in General Method A, but using 10 g of L-Cystine, 17.0 g of dodecanol, and 17.4 g PTSA·H2O. The isolated fluid of Synthetic Example 1′ was then mixed with cyclamen aldehyde as described in General Method B yielding Synthetic Example 1.
as §1, with “2′” for “1′”, “5.0” for “10”, “2,6-Diaminoheptanedioic acid, 10.5” for “L-Cystine, 17.0”, “11” for “17.4”, “with 15 wt % ethanol, and” for “with”, “2A.” for “1.”
Synthetic Example 2′ was prepared as described in General Method A, but using 5.0 g of 2,6-Diaminoheptanedioic acid, 10.8 g of dodecanol, and 11.1 g PTSA H2O. The isolated fluid of Synthetic Example 2′ was then mixed with 15 wt % ethanol, and δ-Damascone, as described in General Method B yielding Synthetic Example 2B.

## CCCCCCCCCCCCOC(=O)C(CCCC(N=CC(C)Cc1ccc(C(C)C)cc1)C(=O)OCCCCCCCCCCCC)N=CC(C)Cc1ccc(C(C)C)cc1 (centres unmarked) [Synthetic Example 2A]
  Stability of the independent fluid by 1H NMR: stable for several months

## CCCCCCCCCCCCOC(=O)C(CCCC(NC(C)CC(=O)C1C(C)C=CCC1(C)C)C(=O)OCCCCCCCCCCCC)NC(C)CC(=O)C1C(C)C=CCC1(C)C (centres unmarked) [Synthetic Example 2B]
  Stability of the independent fluid by 1H NMR: stable for several months
